Source: US9579376B2 (priority 2009, dated 2017)

Experiments:
CD8+ T cells = assay: IFN-γ ELISpot deconvolution and follow-up ICS to identify single peptide epitopes; type: cell-based, human; conditions: for antigenicity for persons with HLA A*0201, A*0202 or other HLA-A2 subtypes: Example 1, T-cells from infected patients; for # SUBJECTS: number of HSV-2 seropositive subjects (55 sampled) with CD8+ T cell response to the peptide, ELISpot and follow-up ICS
Experimental: ELISPOT technology was used to further identify individual peptides.
High throughput intracellular cytokine staining-flow cytometry (ICS) was used to detect IFN-γ, IL-2, TNF-α expression in CD8+ T cells following 6 h exposure of PBMC with HSV-2 peptides (or control antigen) in the presence of co-stimulatory antibodies (α-CD28/α-CD49d) and Brefeldin A. Cytokine responses to peptide antigen were scored positive if they differed from the negative control (p<0.02; Fisher's one-sided test); this cutoff was defined during trial and error validation studies with HSV-2 seronegative subjects and allows for a 5% false positive error rate. Peptide pools giving positive responses by ICS in HSV-2 seropositive subjects were deconvoluted using IFN-γ ELISpot to identify the causative peptide. Deconvolution cutoff was determined as at least 11 spots per well and 3-fold higher spots than DMSO (negative) control.

[1] = tested on: HSV-2 specific CD8+ T cells; assay: CFSE proliferation of peptide exposed PBMC (cell division index); type: cell-based, human; conditions: CFSE stained PBMC; CDI>2 cut-off for proliferation positivity
Description: To evaluate the proliferative capacity of HSV-2 specific CD8+ T cells, we utilized CFSE to stain PBMC prior to epitope specific stimulation. […] CD8+ T cells that recognized UL4945-49 did proliferate (CDI=8.7), but CDI values were below threshold for peptides UL4981-96, UL4993-108 and UL49129-143 (respective CDI=1.8, 1.4 and 1.6). Since T cells specific for UL4945-49 are more abundant that those specific for the other epitopes, the ability of these cells to proliferate likely reflects the epitope dominance observed within UL49.

[2] = tested on: HSV-2 specific CD8+ T cells; conditions: one individual with four HLA-B07 restricted UL49 epitopes; versus other tested epitopes
Experimental: Identified single peptides were used to individually stimulate CD8+ T cells in subjects with multiple epitopes. These responses were analyzed by ICS to determine the polyfunctional profiles of HSV-2 specific T cells. Single peptides were also used to assess degranulation; the presence of lytic proteins granzyme B and perforin, in HSV-2 specific CD8+ T cells, was determined by flow cytometry. The proliferative capacities of HSV-2 specific T cells were determined by pre-staining peptide exposed PBMC with CFSE. A cell division index (CDI)>2 was used as a cut-off for proliferation positivity.
Single peptides identified during this study were used to activate epitope specific CD8+ T cells. Antigen specific CD8+ T cells were identified using a gating strategy. […] The polyfunctional profiles of responding cells, with reference to the expression of IFN-γ, IL2, and TNF-α, and the mobilization of CD107a were determined.

Substance | # SUBJECTS (CD8+ T cells) | other results
9 mer: 9 amino acid minimal epitope at amino acids 372-380 of HSV-2 UL25 (FLWEDQTLL; herpes simplex virus 2) |  | antigenicity for persons with HLA A*0201, A*0202 or other HLA-A2 subtypes (CD8+ T cells): repeatedly and strongly positive
LMLEYFCRCAREESK (herpes simplex virus 2) | 1 | 
KNLLORANELVNPDA: 15-mer epitope, amino acids 249-263 of HSV-2 UL49 | 1 | 
EAGLMDAATPPARPPA | 1 | 
HNLFLWEDQTLLRAT | 5 | antigenicity for persons with HLA A*0201, A*0202 or other HLA-A2 subtypes (CD8+ T cells): repeatedly and strongly positive
KTSNALCVRGARPFS (herpes simplex virus 2) | 1 | 
ARPRRSASVAGSHGPG (herpes simplex virus 2) | 2 | CDI (cell division index) [1]: 1.8
DRLDNRLQLGMLIPG (herpes simplex virus 2) | 1 | 
LPIAGVSSVVALAPY | 1 | 
HGPGPARAPPPPGGPV (herpes simplex virus 2) | 1 | CDI (cell division index) [1]: 1.4
SMSLADFHGEEFEKL (herpes simplex virus 2) | 1 | 
GVLVHLRIRTREASF (herpes simplex virus 2) | 1 | 
DMETGHIGAYVVLVD | 1 | 
PMRARPRGEVRFLHY | 6 | response in Elispot and ICS assays (CD8+ T cells; one individual with four HLA-B07 restricted epitopes within UL49, versus other UL49 epitopes): largest detectable response; CD107a positive cells among responding cells [2]: less CD107a positive cells relative to IFN-γ+ cells; cytokine levels in responding cells [2]: higher levels of IFN-γ; monofunctional cells among responding cells [2]: less monofunctional cells; CDI (cell division index) [1]: 8.7
FGGHYMESVFQMYTR (herpes simplex virus 2) | 1 | 
PKASATPATDPARGR (herpes simplex virus 2) | 1 | CDI (cell division index) [1]: 1.6
DFIWTGNPRTAPRSL | 2 | 
LHPFCIPCMKTWIPL | 1 | 
AFEDRSYPAVFYLLQ (herpes simplex virus 2) | 1 | 
RLGPADRRFVALSGS (herpes simplex virus 2) | 3 | 
PVGNMLFDQGTLVGA | 1 | 
CPLLIFDRTRKFVLA | 1 | 
RAAAPAWSRRTLLPE | 3 | 
GHIGAYVVLVDQTGN | 1 | 
AQREAAGVYDAVRTW (herpes simplex virus 2) | 2 | 
